The source of these data is PMC11997503, “A BPTF-specific PROTAC degrader enhances NK cell-based cancer immunotherapy” (Molecular Therapy, 2025).

For one experiment, the target named is T1, CECR2 (Homo sapiens, UniProt Q9BXF3).
T1 construct: bromodomain
Briefly: SPR positive control (Figure S7D). Type of experiment: binding.

The next experiment has as its target T2, BPTF (Homo sapiens, UniProt Q12830).
T2 construct: bromodomain
Kind of experiment: SPR (Biacore T200, NiHC1500M chip). Type of experiment: binding. In general terms: SPR reads the build-up and loss of mass on a sensor chip optically.

For another experiment, the target named is T3, BRD9 (Homo sapiens, UniProt Q9H8M2).
T3 construct: bromodomain
T3 sequence (Q9H8M2 134-240 limits assumed): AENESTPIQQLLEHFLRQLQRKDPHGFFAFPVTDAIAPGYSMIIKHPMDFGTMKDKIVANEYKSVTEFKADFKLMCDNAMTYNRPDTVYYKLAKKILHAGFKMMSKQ
Kind of experiment: SPR (Biacore T200, NiHC1500M chip). Type of experiment: binding.

In the next experiment the target is T4, CRBN (Homo sapiens, UniProt Q96SW2).
T4 construct: with BPTF
Kind of experiment: co-IP of BPTF with CRBN in 8d-treated Huh7 cells; pomalidomide rescue; N-methyl glutarimide control […] inactive. Type of experiment: cell-based.

T4 sequence (Q96SW2 whole entry, other chains not shown): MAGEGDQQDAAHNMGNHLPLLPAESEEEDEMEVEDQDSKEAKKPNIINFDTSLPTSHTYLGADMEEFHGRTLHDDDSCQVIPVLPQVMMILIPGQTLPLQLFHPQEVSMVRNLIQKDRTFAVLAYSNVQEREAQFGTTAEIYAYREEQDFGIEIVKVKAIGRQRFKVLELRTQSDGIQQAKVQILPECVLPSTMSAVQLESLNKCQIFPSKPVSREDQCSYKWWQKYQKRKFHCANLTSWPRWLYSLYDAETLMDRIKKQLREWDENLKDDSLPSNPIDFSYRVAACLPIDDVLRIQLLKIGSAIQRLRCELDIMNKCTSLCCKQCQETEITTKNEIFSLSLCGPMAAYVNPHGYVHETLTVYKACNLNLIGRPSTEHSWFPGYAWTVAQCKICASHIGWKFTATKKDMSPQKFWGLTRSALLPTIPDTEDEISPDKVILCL
T1 sequence (Q9BXF3 434-538 limits assumed): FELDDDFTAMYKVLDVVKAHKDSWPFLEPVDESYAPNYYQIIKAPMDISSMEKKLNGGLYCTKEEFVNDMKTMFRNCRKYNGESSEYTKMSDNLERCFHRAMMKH

Turning to `CN(C)CCCOc1ccc(-c2cc(NCCCn3cccn3)nc(S(C)(=O)=O)n2)cc1` [TP238], the “CECR2 bromodomain binding affinity” value on CECR2 was “minimal affinity for the CECR2 bromodomain (Figure S7D), which is known to strongly bind to TP238 as a positive control”.

With `CS(=O)(=O)c1nc(NCCCn2cccn2)cc(-c2ccc(NCc3cn(CCOCCOCCOCCOCCOCCNc4cccc5c4C(=O)N(C4CCC(=O)NC4=O)C5=O)nn3)cc2)n1` (stereo not shown) [8d, 4-((17-(4-(((4-(6-((3-(1H-pyrazol-1-yl)propyl)amino)-2-(methylsulfonyl)pyrimidin-4-yl)phenyl)amino)methyl)-1H-1,2,3-triazol-1-yl)-3,6,9,12,15 pentaoxaheptadecyl)amino)-2-(2,6-dioxopiperidin-3-yl) isoindoline-1,3-dione], the Kd at BPTF is 0.563 µM; on BRD9 it was 28.8 µM. In addition, at CRBN, the “co-IP of BPTF with CRBN in 8d-treated Huh7 cells; pomalidomide rescue; N-methyl” value is “through direct recruitment of CRBN, 8d facilitates the proteasome-dependent selective degradation of BPTF”.

One may read the Kd as the free concentration of one partner at which half of the binding sites on the other are occupied at equilibrium, for simple one-to-one binding. Low readings indicate a tighter complex, high ones a looser complex.
